Laboratory results as given in the kinase profiling compilation of Christmann-Franck et al. (2016).
Values belong to the compound of their own block, whether it stands above or below them.

Assays:
EPHA8 (human) = EPHA8 (human) (UniProt P29322); assay: Caliper, Mobility shift assay off-chip
EPHB3 (human) = EPHB3 (human) (UniProt P54753); assay: Caliper, Mobility shift assay off-chip
PRKCG (human) = PRKCG (human) (UniProt P05129); assay: Caliper, Mobility shift assay off-chip
MKNK2 (human) = MKNK2 (human) (UniProt Q9HBH9); assay: Caliper, Mobility shift assay off-chip
CDC42BPA (human) = CDC42BPA (human) (UniProt Q5VT25); assay: Caliper, Mobility shift assay off-chip
PLK2 (human) = PLK2 (human) (UniProt Q9NYY3); assay: IMAP-FP
SRPK1 (human) = SRPK1 (human) (UniProt Q96SB4); assay: IMAP-FP
EIF2AK3 (human) = EIF2AK3 (human) (UniProt Q9NZJ5); assay: IMAP-FP
EIF2AK2 (human) = EIF2AK2 (human) (UniProt P19525); assay: IMAP-FP
MAP3K10 (human) = MAP3K10 (human) (UniProt Q02779); assay: ELISA
MAP3K8 (human) = MAP3K8 (human) (UniProt P41279); assay: ELISA
MAP3K2 (human) = MAP3K2 (human) (UniProt Q9Y2U5); assay: ELISA
TTK (human) = TTK (human) (UniProt P33981); assay: ELISA
BRAF (human) = BRAF (human) (UniProt P15056); assay: ELISA
STK11 (human) = STK11 (human) (UniProt Q15831); assay: ELISA
PLK4 (human) = PLK4 (human) (UniProt O00444); assay: ELISA
MAP3K12 (human) = MAP3K12 (human) (UniProt Q12852); assay: ELISA
WEE1 (human) = WEE1 (human) (UniProt P30291); assay: ELISA
MAP3K11 (human) = MAP3K11 (human) (UniProt Q16584); assay: ELISA
BMPR1A (human) = BMPR1A (human) (UniProt P36894); assay: ELISA
MAP2K7 (human) = MAP2K7 (human) (UniProt O14733); assay: ELISA
MAP2K3 (human) = MAP2K3 (human) (UniProt P46734); assay: ELISA
MAP3K4 (human) = MAP3K4 (human) (UniProt Q9Y6R4); assay: ELISA
MAP2K5 (human) = MAP2K5 (human) (UniProt Q13163); assay: ELISA
MAP3K3 (human) = MAP3K3 (human) (UniProt Q99759); assay: ELISA
MAP2K6 (human) = MAP2K6 (human) (UniProt P52564); assay: ELISA
MAP2K1 (human) = MAP2K1 (human) (UniProt Q02750); assay: ELISA
MAP3K5 (human) = MAP3K5 (human) (UniProt Q99683); assay: ELISA
RAF1 (human) = RAF1 (human) (UniProt P04049); assay: ELISA
MAP2K2 (human) = MAP2K2 (human) (UniProt P36507); assay: ELISA
MOS (human) = MOS (human) (UniProt P00540); assay: ELISA
MAP3K1 (human) = MAP3K1 (human) (UniProt Q13233); assay: ELISA
LIMK1 (human) = LIMK1 (human) (UniProt P53667); assay: ELISA
MAP2K4 (human) = MAP2K4 (human) (UniProt P45985); assay: ELISA
MAP3K9 (human) = MAP3K9 (human) (UniProt P80192); assay: ELISA

Sequence of WEE1 (human) (P30291 whole entry, looked up): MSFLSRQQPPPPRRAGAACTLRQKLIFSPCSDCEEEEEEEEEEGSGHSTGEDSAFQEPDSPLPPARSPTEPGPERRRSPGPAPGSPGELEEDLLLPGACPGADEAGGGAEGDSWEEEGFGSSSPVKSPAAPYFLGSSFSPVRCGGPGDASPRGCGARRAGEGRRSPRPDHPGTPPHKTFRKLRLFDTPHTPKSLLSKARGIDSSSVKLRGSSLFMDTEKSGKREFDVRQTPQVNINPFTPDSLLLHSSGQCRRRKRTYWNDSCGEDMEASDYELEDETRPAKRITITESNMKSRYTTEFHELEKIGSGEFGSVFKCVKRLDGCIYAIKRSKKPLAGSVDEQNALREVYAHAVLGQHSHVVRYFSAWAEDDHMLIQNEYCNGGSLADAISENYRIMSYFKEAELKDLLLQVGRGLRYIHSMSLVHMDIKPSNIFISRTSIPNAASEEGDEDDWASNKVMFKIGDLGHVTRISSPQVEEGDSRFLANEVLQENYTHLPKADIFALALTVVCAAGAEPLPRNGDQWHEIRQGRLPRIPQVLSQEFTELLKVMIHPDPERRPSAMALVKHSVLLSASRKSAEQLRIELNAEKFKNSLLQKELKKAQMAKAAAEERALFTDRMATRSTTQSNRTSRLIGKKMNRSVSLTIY
Sequence of EPHB3 (human) (P54753 whole entry, looked up): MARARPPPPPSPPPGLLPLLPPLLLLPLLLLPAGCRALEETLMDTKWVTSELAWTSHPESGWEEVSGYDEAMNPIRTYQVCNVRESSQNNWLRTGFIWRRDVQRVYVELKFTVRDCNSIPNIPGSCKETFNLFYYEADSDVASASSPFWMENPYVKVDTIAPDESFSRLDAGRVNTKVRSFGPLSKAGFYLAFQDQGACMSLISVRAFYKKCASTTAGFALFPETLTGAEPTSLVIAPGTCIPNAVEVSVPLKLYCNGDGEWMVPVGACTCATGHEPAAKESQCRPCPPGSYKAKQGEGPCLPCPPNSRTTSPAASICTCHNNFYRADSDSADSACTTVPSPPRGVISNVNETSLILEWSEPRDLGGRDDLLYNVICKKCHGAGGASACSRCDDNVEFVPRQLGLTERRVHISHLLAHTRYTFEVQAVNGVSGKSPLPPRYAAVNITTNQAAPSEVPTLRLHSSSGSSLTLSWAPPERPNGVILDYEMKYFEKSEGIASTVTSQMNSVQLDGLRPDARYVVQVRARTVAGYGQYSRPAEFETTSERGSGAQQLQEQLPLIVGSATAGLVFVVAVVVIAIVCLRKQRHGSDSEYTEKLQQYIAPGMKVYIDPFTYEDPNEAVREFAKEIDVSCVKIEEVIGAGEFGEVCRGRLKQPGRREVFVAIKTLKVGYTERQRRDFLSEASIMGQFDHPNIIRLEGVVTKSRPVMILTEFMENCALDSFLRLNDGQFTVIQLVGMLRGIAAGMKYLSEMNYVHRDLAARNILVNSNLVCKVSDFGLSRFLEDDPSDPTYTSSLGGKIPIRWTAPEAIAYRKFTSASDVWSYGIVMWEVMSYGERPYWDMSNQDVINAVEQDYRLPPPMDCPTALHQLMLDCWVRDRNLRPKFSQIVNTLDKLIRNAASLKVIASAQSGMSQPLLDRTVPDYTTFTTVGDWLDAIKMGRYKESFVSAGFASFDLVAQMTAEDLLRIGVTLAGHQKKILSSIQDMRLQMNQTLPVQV
Sequence of MAP3K1 (human) (Q13233 whole entry, looked up): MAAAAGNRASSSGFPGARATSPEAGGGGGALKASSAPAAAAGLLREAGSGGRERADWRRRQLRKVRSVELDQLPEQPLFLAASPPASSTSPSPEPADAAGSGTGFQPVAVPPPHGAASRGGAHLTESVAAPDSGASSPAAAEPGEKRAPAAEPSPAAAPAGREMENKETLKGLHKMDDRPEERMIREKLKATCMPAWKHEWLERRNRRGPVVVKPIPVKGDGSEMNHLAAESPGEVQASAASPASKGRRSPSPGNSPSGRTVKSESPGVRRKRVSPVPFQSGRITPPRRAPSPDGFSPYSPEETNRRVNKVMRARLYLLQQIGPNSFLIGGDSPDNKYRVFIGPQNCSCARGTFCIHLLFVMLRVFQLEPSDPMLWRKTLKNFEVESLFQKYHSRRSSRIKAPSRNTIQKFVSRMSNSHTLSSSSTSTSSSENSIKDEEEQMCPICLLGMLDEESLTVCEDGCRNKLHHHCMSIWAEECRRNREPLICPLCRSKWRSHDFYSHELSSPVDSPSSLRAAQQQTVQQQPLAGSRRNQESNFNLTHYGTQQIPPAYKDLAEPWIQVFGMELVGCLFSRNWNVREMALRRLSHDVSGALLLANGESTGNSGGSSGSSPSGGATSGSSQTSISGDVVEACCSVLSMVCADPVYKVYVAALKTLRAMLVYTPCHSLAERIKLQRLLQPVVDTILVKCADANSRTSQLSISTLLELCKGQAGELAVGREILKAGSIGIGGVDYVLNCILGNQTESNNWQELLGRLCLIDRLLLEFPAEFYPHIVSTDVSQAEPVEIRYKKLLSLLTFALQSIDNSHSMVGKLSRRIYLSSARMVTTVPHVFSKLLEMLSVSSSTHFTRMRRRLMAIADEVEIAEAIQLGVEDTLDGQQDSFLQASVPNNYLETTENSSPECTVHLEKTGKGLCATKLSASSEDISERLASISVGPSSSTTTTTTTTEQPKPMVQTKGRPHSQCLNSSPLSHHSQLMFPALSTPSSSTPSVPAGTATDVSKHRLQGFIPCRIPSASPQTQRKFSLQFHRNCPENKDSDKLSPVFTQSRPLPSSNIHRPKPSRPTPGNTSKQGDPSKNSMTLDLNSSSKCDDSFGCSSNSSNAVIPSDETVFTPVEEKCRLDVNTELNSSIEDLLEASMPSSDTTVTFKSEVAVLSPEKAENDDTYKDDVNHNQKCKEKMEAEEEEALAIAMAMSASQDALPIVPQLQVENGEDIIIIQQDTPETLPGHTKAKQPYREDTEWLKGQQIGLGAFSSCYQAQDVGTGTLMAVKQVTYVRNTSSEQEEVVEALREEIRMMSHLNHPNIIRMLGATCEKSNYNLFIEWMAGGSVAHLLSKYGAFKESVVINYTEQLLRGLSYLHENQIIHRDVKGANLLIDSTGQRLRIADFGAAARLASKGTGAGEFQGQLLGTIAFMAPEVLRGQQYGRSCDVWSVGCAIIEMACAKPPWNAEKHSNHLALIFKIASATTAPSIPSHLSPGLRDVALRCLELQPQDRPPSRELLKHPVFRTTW
Sequence of MOS (human) (P00540 whole entry, looked up): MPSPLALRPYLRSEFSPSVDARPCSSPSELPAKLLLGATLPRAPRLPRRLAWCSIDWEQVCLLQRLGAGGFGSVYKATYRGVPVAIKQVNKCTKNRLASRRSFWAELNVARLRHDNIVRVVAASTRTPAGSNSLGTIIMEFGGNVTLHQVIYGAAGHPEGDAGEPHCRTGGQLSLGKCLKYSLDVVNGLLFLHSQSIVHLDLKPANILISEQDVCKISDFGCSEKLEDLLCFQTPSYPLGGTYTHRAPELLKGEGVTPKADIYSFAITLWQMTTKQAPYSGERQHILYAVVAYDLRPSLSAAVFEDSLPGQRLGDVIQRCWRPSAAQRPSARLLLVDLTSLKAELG
Sequence of EPHA8 (human) (P29322 whole entry, looked up): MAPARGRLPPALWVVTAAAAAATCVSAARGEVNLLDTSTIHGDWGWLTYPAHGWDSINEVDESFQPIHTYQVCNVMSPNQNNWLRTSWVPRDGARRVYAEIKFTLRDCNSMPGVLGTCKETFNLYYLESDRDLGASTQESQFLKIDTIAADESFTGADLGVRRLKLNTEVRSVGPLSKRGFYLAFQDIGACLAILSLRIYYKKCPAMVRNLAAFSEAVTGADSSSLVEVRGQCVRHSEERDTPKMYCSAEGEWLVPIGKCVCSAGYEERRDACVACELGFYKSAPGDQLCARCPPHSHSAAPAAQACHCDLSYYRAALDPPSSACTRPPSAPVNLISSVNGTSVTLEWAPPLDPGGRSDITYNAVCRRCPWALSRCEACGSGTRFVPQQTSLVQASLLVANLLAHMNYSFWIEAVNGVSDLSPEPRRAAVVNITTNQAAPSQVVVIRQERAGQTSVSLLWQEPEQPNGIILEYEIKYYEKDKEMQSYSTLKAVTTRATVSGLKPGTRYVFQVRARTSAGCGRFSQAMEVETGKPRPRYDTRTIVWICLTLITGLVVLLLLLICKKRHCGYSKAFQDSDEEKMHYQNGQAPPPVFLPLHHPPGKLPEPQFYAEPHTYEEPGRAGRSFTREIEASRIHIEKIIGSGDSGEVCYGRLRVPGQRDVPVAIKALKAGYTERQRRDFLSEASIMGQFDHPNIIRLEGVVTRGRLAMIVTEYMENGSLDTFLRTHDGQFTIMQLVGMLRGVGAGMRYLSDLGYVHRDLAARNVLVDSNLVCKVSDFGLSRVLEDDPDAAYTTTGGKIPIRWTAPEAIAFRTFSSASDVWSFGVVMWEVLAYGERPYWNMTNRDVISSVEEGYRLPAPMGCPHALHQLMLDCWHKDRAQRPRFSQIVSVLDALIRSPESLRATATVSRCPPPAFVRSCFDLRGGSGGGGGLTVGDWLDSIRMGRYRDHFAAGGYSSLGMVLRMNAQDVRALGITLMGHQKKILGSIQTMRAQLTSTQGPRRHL
Sequence of MAP2K3 (human) (P46734 whole entry, looked up): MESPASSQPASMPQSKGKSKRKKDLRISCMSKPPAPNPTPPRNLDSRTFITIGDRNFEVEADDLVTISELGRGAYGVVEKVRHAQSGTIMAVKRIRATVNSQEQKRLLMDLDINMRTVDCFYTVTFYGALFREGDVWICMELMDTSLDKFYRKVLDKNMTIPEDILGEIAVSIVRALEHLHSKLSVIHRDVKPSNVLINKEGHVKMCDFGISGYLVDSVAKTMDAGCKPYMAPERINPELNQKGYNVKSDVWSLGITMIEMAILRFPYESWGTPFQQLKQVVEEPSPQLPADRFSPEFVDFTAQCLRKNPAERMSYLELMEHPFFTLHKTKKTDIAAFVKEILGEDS

- inhibition (EPHA8 (human); compound 0.2 µM): -0.2%
- inhibition (EPHA8 (human); compound 4.0 µM): 27.7%
- inhibition (EPHB3 (human); compound 0.2 µM): -1.7%
- inhibition (EPHB3 (human); compound 4.0 µM): 15.3%
- inhibition (PRKCG (human); compound 0.2 µM): 0.1%
- inhibition (PRKCG (human); compound 4.0 µM): 38.9%
- inhibition (MKNK2 (human); compound 0.2 µM): 3.2%
- inhibition (MKNK2 (human); compound 4.0 µM): 28%
- inhibition (CDC42BPA (human); compound 0.2 µM): 5.5%
- inhibition (CDC42BPA (human); compound 4.0 µM): -26.5%
- inhibition (PLK2 (human); compound 0.2 µM): -4.7%
- inhibition (PLK2 (human); compound 4.0 µM): 4.2%
- inhibition (SRPK1 (human); compound 0.2 µM): -0.7%
- inhibition (SRPK1 (human); compound 4.0 µM): 39.6%
- inhibition (EIF2AK3 (human); compound 0.2 µM): -15%
- inhibition (EIF2AK3 (human); compound 4.0 µM): -5.4%
- inhibition (EIF2AK2 (human); compound 0.2 µM): 29.1%
- inhibition (EIF2AK2 (human); compound 4.0 µM): 88.4%
- inhibition (MAP3K10 (human); compound 0.2 µM): 1.2%
- inhibition (MAP3K10 (human); compound 4.0 µM): 11%
- inhibition (MAP3K8 (human); compound 0.2 µM): -5.3%
- inhibition (MAP3K8 (human); compound 4.0 µM): -9.2%
- inhibition (MAP3K2 (human); compound 0.2 µM): 52.1%
- inhibition (MAP3K2 (human); compound 4.0 µM): 95.7%
- inhibition (TTK (human); compound 0.2 µM): 11.5%
- inhibition (TTK (human); compound 4.0 µM): 89.7%
- inhibition (BRAF (human); compound 0.2 µM): -51%
- inhibition (BRAF (human); compound 4.0 µM): -60.8%
- inhibition (STK11 (human); compound 0.2 µM): 4.3%
- inhibition (STK11 (human); compound 4.0 µM): 28.1%
- inhibition (PLK4 (human); compound 0.2 µM): 30.3%
- inhibition (PLK4 (human); compound 4.0 µM): 82.7%
- inhibition (MAP3K12 (human); compound 0.2 µM): 59.5%
- inhibition (MAP3K12 (human); compound 4.0 µM): 96.5%
- inhibition (WEE1 (human); compound 0.2 µM): 10%
- inhibition (WEE1 (human); compound 4.0 µM): 65.3%
- inhibition (MAP3K11 (human); compound 0.2 µM): 30.9%
- inhibition (MAP3K11 (human); compound 4.0 µM): 89.4%
- inhibition (BMPR1A (human); compound 0.2 µM): -3.8%
- inhibition (BMPR1A (human); compound 4.0 µM): -7.3%
- inhibition (MAP2K7 (human); compound 0.2 µM): 2.2%
- inhibition (MAP2K7 (human); compound 4.0 µM): -3.6%
- inhibition (MAP2K3 (human); compound 0.2 µM): -2%
- inhibition (MAP3K4 (human); compound 0.2 µM): -4.9%
- inhibition (MAP3K4 (human); compound 4.0 µM): 17.5%
- inhibition (MAP2K5 (human); compound 0.2 µM): 32.7%
- inhibition (MAP2K5 (human); compound 4.0 µM): 91.8%
- inhibition (MAP3K3 (human); compound 0.2 µM): 56.3%
- inhibition (MAP3K3 (human); compound 4.0 µM): 95.5%
- inhibition (MAP2K6 (human); compound 0.2 µM): 21.1%
- inhibition (MAP2K6 (human); compound 4.0 µM): 87.3%
- inhibition (MAP2K1 (human); compound 0.2 µM): 73.2%
- inhibition (MAP3K5 (human); compound 0.2 µM): -0.6%
- inhibition (MAP3K5 (human); compound 4.0 µM): 60.6%
- inhibition (RAF1 (human); compound 0.2 µM): -61.4%
- inhibition (RAF1 (human); compound 4.0 µM): -88.1%
- inhibition (MAP2K2 (human); compound 0.2 µM): 70.1%
- inhibition (MAP2K2 (human); compound 4.0 µM): 99%
- inhibition (MOS (human); compound 0.2 µM): 2.5%
- inhibition (MOS (human); compound 4.0 µM): 29.9%
- inhibition (MAP3K1 (human); compound 0.2 µM): 15.9%
- inhibition (MAP3K1 (human); compound 4.0 µM): -29.8%
- inhibition (LIMK1 (human); compound 0.2 µM): -0.7%
- inhibition (LIMK1 (human); compound 4.0 µM): 31.7%
- inhibition (MAP2K4 (human); compound 0.2 µM): 2.8%
- inhibition (MAP2K4 (human); compound 4.0 µM): 51.9%
SMILES: CCN(CC)CCNC(=O)c1c(C)[nH]c(/C=C2\C(=O)Nc3ccc(F)cc32)c1C

- inhibition (EPHA8 (human); compound 0.02 µM): -1.1%
- inhibition (EPHA8 (human); compound 0.2 µM): 10.8%
- inhibition (EPHB3 (human); compound 0.02 µM): -6.1%
- inhibition (EPHB3 (human); compound 0.2 µM): -4%
- inhibition (PRKCG (human); compound 0.02 µM): 4%
- inhibition (PRKCG (human); compound 0.2 µM): -6.3%
- inhibition (MKNK2 (human); compound 0.02 µM): 2.7%
- inhibition (MKNK2 (human); compound 0.2 µM): 1.5%
- inhibition (CDC42BPA (human); compound 0.02 µM): 13.3%
- inhibition (CDC42BPA (human); compound 0.2 µM): 11%
- inhibition (PLK2 (human); compound 0.02 µM): 3.9%
- inhibition (PLK2 (human); compound 0.2 µM): -0.8%
- inhibition (SRPK1 (human); compound 0.02 µM): -6.8%
- inhibition (SRPK1 (human); compound 0.2 µM): -3.6%
- inhibition (EIF2AK3 (human); compound 0.02 µM): -15%
- inhibition (EIF2AK3 (human); compound 0.2 µM): -17%
- inhibition (MAP3K10 (human); compound 0.02 µM): 8.1%
- inhibition (MAP3K10 (human); compound 0.2 µM): 17.3%
- inhibition (MAP3K8 (human); compound 0.02 µM): -2.6%
- inhibition (MAP3K8 (human); compound 0.2 µM): -1.1%
- inhibition (MAP3K2 (human); compound 0.02 µM): -4%
- inhibition (MAP3K2 (human); compound 0.2 µM): 12%
- inhibition (TTK (human); compound 0.02 µM): -8.3%
- inhibition (TTK (human); compound 0.2 µM): 2.4%
- inhibition (STK11 (human); compound 0.02 µM): 0.6%
- inhibition (PLK4 (human); compound 0.02 µM): 8.8%
- inhibition (PLK4 (human); compound 0.2 µM): 22.3%
- inhibition (MAP3K12 (human); compound 0.02 µM): 8.5%
- inhibition (MAP3K12 (human); compound 0.2 µM): 25%
- inhibition (WEE1 (human); compound 0.02 µM): -3.7%
- inhibition (WEE1 (human); compound 0.2 µM): -3.5%
- inhibition (BMPR1A (human); compound 0.02 µM): 0.4%
- inhibition (BMPR1A (human); compound 0.2 µM): 6.5%
- inhibition (MAP2K7 (human); compound 0.02 µM): 3.2%
- inhibition (MAP2K7 (human); compound 0.2 µM): 0.2%
- inhibition (MAP2K3 (human); compound 0.02 µM): -3.4%
- inhibition (MAP2K3 (human); compound 0.2 µM): 5.5%
- inhibition (MAP3K4 (human); compound 0.02 µM): -1.5%
- inhibition (MAP3K4 (human); compound 0.2 µM): 3%
- inhibition (MAP2K5 (human); compound 0.02 µM): -16.9%
- inhibition (MAP2K5 (human); compound 0.2 µM): 0%
- inhibition (MAP3K3 (human); compound 0.02 µM): 4.7%
- inhibition (MAP3K3 (human); compound 0.2 µM): 39.5%
- inhibition (MAP3K9 (human); compound 0.02 µM): 28.1%
- inhibition (MAP3K9 (human); compound 0.2 µM): 74.8%
- inhibition (MAP2K6 (human); compound 0.02 µM): 7.1%
- inhibition (MAP2K6 (human); compound 0.2 µM): 24.5%
- inhibition (MAP2K1 (human); compound 0.02 µM): -3.2%
- inhibition (MAP2K1 (human); compound 0.2 µM): -5.7%
- inhibition (MAP3K5 (human); compound 0.02 µM): 1.9%
- inhibition (MAP3K5 (human); compound 0.2 µM): 8.3%
- inhibition (RAF1 (human); compound 0.02 µM): 22.1%
- inhibition (RAF1 (human); compound 0.2 µM): 77.8%
- inhibition (MAP2K2 (human); compound 0.02 µM): -7.4%
- inhibition (MAP2K2 (human); compound 0.2 µM): -4%
- inhibition (MOS (human); compound 0.02 µM): -6.8%
- inhibition (MOS (human); compound 0.2 µM): 5%
- inhibition (MAP3K1 (human); compound 0.02 µM): -1%
- inhibition (MAP3K1 (human); compound 0.2 µM): 3.7%
- inhibition (MAP2K4 (human); compound 0.02 µM): 8.7%
- inhibition (MAP2K4 (human); compound 0.2 µM): 9.5%
SMILES: Cc1ccc(Nc2nccc(N(C)c3ccc4c(C)n(C)nc4c3)n2)cc1S(N)(=O)=O
